{"source": "patent US20240269170A1", "about": "“Treatment of Inflammatory Conditions or Diseases” (Queen Mary University of London, priority 2021, published 2024)", "system": "K/B×N serum induced arthritis in C57BL/6 mice", "test": "Sustained K/B×N serum induced arthritis, MCTR3 given 10 days after disease onset", "assay_type": "in vivo, mouse", "method": "(A-D) K/B×N serum (100 μL via intraperitoneal injection, i.p.) was administered to C57BL/6 mice on days 0, 2 and 8 to initiate and prolong inflammatory arthritis. Mice were treated 1 μg/mouse MCTR3 or vehicle (PBS+0.1% EtOH) on day 10, 12 and 14 via intravenous (i.v.) injection. Disease course was assessed by evaluating A) clinical scores and B) paw oedema daily. Results are mean±SEM, n=9 mice per group. Statistical differences were evaluated using a Two-Way ANOVA. Arrows denote days when MCTR3 was administered. (C,D) paws were harvested on day 25, and cells liberated from the joints and the expression of phenotypic markers was evaluated on joint macrophages using flow cytometry and PLS-DA. (C) scores plot with highlighted regions denoting the clusters representing cells from each group and (D) VIP scores for each of the markers evaluated. Each dot in the score plot represents a separate mouse. (E-H) Arthritis was induced in DBA/1 mice by administration of 10 μg G6PI in CFA on Day 0. On day 24, 26 and 28 (denoted in blue arrows), mice were administered 1 μg/mouse MCTR3 or vehicle (PBS+0.1% EtOH) i.v. and (E) clinical scores and (F) paw oedema were measured. Results are mean±SEM, n=mice 7 per group from 2 separate experiments. Statistical differences were evaluated using a Two-Way ANOVA. (G-H) paws were harvested on day 36, and cells liberated from the joints and the expression of phenotypic markers was evaluated on joint macrophages using flow cytometry and PLS-DA. (G) scores plot with highlighted regions denoting the clusters representing cells from each group and (H) VIP scores for each of the markers evaluated. Each dot in the score plot represents a separate mouse.\nFIG. 2: MCTR3 promotes bone and cartilage repair. C57BL/6 mice were administered 100 μL K/B×N serum i.p. on day 0, 2 and 8. Mice were treated with 1 μg/mouse MCTR3 or vehicle (PBS+0.1% EtOH) i.v. on day 10, 12 and 14. Hind paws and blood were collected on day 25 and A) glycosaminoglycan content was evaluated using Safranin-O staining. (left and centre panels) Representative images from Safranin-O stained knee joints and (right panel) quantification of Safranin-O stained knee joints. Results are mean±SEM, n=8 per group. Statistical differences were evaluated using Mann-Whitney U test. B-D) Expression of collagen type 2 (Col 2) and collagen type X (Col X) was evaluated using immunohistochemistry. B) Representative images from immunofluorescent assessment of Col 2 and Col X expression, C) mean intensity of Col 2 and D) average number of cells expressing Col X. Results are mean±SEM, n=5 per group, statistical differences were evaluated using Mann-Whitney U test. E-I) microCT analysis was performed on ankle joints ex vivo to assess bone callus cover. D) Representative images of ankles from vehicle and MCTR3 treated mice, where red represents the callus area. F) Callus tissue volume, G) bone volume, H) bone surface and I) the ratio of bone surface to bone volume of the ankles from mice treated with either vehicle or MCTR3. Results are mean±SEM, n=8 per group from two separate experiments. Statistical differences were evaluated Mann-Whitney U test. J,K) Blood was collected at the end of the experiment and plasma PINP and CTX-I levels were assessed. Results are mean±SEM, n=5 for Vehicle and n=7 for MCTR3 groups. Statistical differences were evaluated Mann Whitney U test.\nFIG. 8: MCTR3 decreased leukocyte infiltration and cartilage damage in arthritic mice. Related to FIG. 1. C57BL/6 mice were administered 100 μL K/B×N serum i.p. on day 0, 2 and 8. Mice were treated with 1 μg/mouse MCTR3 or vehicle i.v. (PBS+0.1% EtOH) on day 10, 12 and 14. Hind paws were collected on day 25, fixed and stained using H&E stain. (A) representative images (B) Pannus size (C) leukocyte infiltration and (D) cartilage damage were evaluated. Results are mean±SEM. n=5 mice per group. IFP=intrapatellar fat, M=meniscus, TB=Tibia, PF=Pannus formation, Red arrows denote leukocyte infiltration. […]", "key": {"[1]": {"settings": "1 μg/mouse i.v. on day 10, 12 and 14"}, "[2]": {"settings": "1 μg/mouse i.v. on day 10, 12 and 14, hind paws day 25"}, "[3]": {"settings": "1 μg/mouse i.v., ELISA, end of experiment"}, "[4]": {"settings": "1 μg/mouse i.v., ankle joints day 25, microCT"}, "[5]": {"settings": "1 μg/mouse i.v., day 25, flow cytometry, VIP score"}, "[6]": {"settings": "1 μg/mouse i.v., day 25, immunohistochemistry"}}}
{"smiles": "CC/C=C\\C/C=C\\C[C@H](O)[C@@H](/C=C/C=C/C=C\\C/C=C\\CCC(=O)O)SC[C@H](N)C(=O)O", "note": "[MCTR3, 13R-cysteinyl, 14S-hydroxy-4Z, 7Z, 9E, 11E, 13R, 14S, 16Z, 19Z-docosahexaenoic acid]", "values": [{"measurement": "clinical scores", "setting": "[1]", "result": "significant reduction"}, {"measurement": "joint oedema", "setting": "[1]", "result": "marked reduction"}, {"measurement": "safranin O-staining in joints (glycosaminoglycan content)", "setting": "1 μg/mouse i.v. on day 10, 12 and 14, day 25", "result": "significantly higher"}, {"measurement": "cartilage damage (H&E)", "setting": "[2]", "result": "significantly reducing"}, {"measurement": "leukocyte infiltration (H&E)", "setting": "[2]", "result": "significantly reducing"}, {"measurement": "resolution interval", "setting": "1 μg/mouse i.v. on day 10, 12 and 14, vehicle ~9 days", "result": "~5", "unit": "days"}, {"measurement": "plasma CTX concentrations (bone resorption marker)", "setting": "[3]", "result": "significant reduction"}, {"measurement": "plasma PINP levels (bone formation marker)", "setting": "[3]", "result": "similar"}, {"measurement": "bone callus size (total volume and surface area occupied by the callus)", "setting": "[4]", "result": "smaller"}, {"measurement": "surface to volume ratio in the callus", "setting": "[4]", "result": "significant increase"}, {"measurement": "Arginase (Arg)-1 in joint macrophages", "setting": "[5]", "result": "upregulation"}, {"measurement": "Interleukin (IL)-10 in joint macrophages", "setting": "[5]", "result": "upregulation"}, {"measurement": "expression of collagen 2 in joints", "setting": "[6]", "result": "increase"}, {"measurement": "expression of collagen X in joints", "setting": "[6]", "result": "increase"}]}
